Experimental findings from patent US20200216416A1, “QUINOLINE COMPOUNDS AS INHIBITORS OF TAM AND MET KINASES” (Array BioPharma Inc., priority 2019, published 2020) are described below.

Experiment [1] has as its target T1, human MET kinase F1200I (Homo sapiens, UniProt P08581, F1200I).
T1 construct: GST-tagged recombinant human MET kinase domain; purchased Signal Chem
Briefly: c-Met Enzyme Assay, F1200I mutant. Format: binding. To be noted: averaged IC50; F1200I 2 nM; 60-minute incubation at 22° C. As for the experimental part:
(§1) The affinity of compound binding to wild type and mutant human MET kinases was measured using Invitrogen's LanthaScreen™ Eu Kinase Binding technology. Briefly, GST-tagged recombinant human MET kinase domain from Signal Chem (see Table 8 below for concentration in assay) was incubated with 50 nM Alexa-Fluor® Tracer 236 (Invitrogen Cat No. PR9078A) and 2 nM Europium-anti-GST (Invitrogen Cat. No. A15116) along with test compound in a buffer consisting of 25 mM HEPES, pH 7.4, 10 mM MgCl2, 0.01% Triton X-100, 1mM DTT, and 2% DMSO. Compounds were typically prepared in a three-fold serial dilution in DMSO and added to the assay to give the appropriate final concentration. After a 60-minute incubation at 22° C., the reaction was measured using a PerkinElmer EnVision multimode plate reader via TR-FRET dual wavelength detection, and the percent of control (POC) calculated using a ratiometric emission factor. […] The POC values were fit to a 4 parameter logistic curve and the IC50 value is point where the curve crosses 50 POC.

Experiment [2] deals with T2, human MET kinase Y1230C (Homo sapiens, UniProt P08581, Y1230C).
T2 construct: GST-tagged recombinant human MET kinase domain; purchased Signal Chem
Briefly: c-Met Enzyme Assay, Y1230C mutant. Format: binding. The settings on record: averaged IC50; Y1230C 2 nM; 60-minute incubation at 22° C.; read-out: Y1230 C IC50. As for the experimental part: as §1

The target of experiment [3] is T3, human MET kinase Y1230S (Homo sapiens, UniProt P08581, Y1230S).
T3 construct: GST-tagged recombinant human MET kinase domain; purchased Signal Chem
The experiment in a line: c-Met Enzyme Assay, Y1230S mutant. The class given is binding. The settings on record: averaged IC50; Y1230S 8 nM; 60-minute incubation at 22° C.; read-out: Y1230 S IC50. On the procedure: as §1

The target of experiment [4] is T4, human MET kinase L1195V (Homo sapiens, UniProt P08581, L1195V).
T4 construct: GST-tagged recombinant human MET kinase domain; purchased Signal Chem
Briefly: c-Met Enzyme Assay, L1195V mutant. The settings on record: averaged IC50; L1195V 10 nM; 60-minute incubation at 22° C. The class given is binding. On the procedure: as §1

Experiment [5] deals with T5, human MET kinase D1228N (Homo sapiens, UniProt P08581, D1228N).
T5 construct: GST-tagged recombinant human MET kinase domain; purchased Signal Chem
The experiment in a line: c-Met Enzyme Assay, D1228N mutant. Format: binding. To be noted: averaged IC50; D1228N 2 nM; 60-minute incubation at 22° C.; read-out: D1228 N IC50. As for the experimental part:
as §1

Experiment [6] deals with T6, His-tagged recombinant human MER cytoplasmic domain (Homo sapiens, UniProt Q12866).
T6 construct: His-tagged recombinant human MER cytoplasmic domain
T6 sequence (Q12866 527-999 limits assumed): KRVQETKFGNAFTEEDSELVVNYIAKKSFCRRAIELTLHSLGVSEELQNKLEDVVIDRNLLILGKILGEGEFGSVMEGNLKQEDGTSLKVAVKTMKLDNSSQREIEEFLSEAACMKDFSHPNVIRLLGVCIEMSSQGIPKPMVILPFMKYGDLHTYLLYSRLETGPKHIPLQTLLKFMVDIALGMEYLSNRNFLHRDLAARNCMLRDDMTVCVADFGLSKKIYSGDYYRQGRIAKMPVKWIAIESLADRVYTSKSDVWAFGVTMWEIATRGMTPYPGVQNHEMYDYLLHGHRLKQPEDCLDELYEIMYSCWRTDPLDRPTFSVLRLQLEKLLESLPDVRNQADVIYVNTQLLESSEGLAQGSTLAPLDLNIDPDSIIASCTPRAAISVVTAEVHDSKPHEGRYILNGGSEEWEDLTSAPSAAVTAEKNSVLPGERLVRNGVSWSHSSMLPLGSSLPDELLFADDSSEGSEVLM
Briefly: MER Enzyme Assay (LanthaScreen Eu Kinase Binding). The settings on record: averaged IC50; MER 5 nM; 60-minute incubation at 22° C.; TR-FRET. Put shortly: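 TR-FRET binding: 5 nM His-MER cytoplasmic domain with 20 nM Tracer 236, 2 nM biotin-anti-His and 2 nM Eu-streptavidin in pH 7.4 HEPES, 10 mM MgCl2, 2% DMSO, with threefold compound dilutions, 60 min at 22 °C. Percent of control was fit to a 4-parameter logistic, and IC50 was taken at 50 POC.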

Experiment [7] deals with T7, human MET kinase Y1230H (Homo sapiens, UniProt P08581, Y1230H).
T7 construct: GST-tagged recombinant human MET kinase domain; purchased Signal Chem
The experiment in a line: c-Met Enzyme Assay, Y1230H mutant. The class given is binding. The settings on record: averaged IC50; Y1230H 5 nM; 60-minute incubation at 22° C.; read-out: Y1230 H IC50. As for the experimental part:
as §1

The target in experiment [8] is T8, human MET kinase D1228H (Homo sapiens, UniProt P08581, D1228H).
T8 construct: GST-tagged recombinant human MET kinase domain; purchased Signal Chem
Briefly: c-Met Enzyme Assay, D1228H mutant. The class given is binding. To be noted: averaged IC50; D1228H 2 nM; 60-minute incubation at 22° C.; read-out: D1228 H IC50. As for the experimental part: as §1

T5 sequence (P08581 1078-1345 D1228N): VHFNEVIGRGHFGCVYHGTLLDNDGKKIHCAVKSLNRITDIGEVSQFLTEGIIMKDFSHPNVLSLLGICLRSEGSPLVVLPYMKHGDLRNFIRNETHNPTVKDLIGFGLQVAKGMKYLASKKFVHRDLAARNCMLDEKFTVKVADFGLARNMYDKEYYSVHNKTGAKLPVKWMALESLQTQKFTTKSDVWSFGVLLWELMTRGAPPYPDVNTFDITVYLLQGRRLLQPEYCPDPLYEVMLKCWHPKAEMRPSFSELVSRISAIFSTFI
T2 sequence (P08581 1078-1345 Y1230C): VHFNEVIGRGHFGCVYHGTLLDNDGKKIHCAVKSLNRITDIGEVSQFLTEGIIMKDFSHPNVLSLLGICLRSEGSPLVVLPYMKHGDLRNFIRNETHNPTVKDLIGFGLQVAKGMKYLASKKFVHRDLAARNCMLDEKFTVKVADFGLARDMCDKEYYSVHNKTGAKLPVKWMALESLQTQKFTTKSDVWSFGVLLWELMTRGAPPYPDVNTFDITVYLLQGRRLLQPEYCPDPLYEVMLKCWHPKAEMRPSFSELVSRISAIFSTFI
T4 sequence (P08581 1078-1345 L1195V limits assumed): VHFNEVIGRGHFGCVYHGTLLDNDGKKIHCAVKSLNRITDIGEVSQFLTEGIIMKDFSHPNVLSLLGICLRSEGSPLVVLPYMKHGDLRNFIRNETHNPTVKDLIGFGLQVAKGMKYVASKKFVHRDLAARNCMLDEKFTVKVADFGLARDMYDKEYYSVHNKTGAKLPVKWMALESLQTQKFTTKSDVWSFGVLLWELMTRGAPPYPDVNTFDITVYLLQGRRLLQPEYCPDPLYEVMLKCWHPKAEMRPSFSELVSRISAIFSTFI
T3 sequence (P08581 1078-1345 Y1230S): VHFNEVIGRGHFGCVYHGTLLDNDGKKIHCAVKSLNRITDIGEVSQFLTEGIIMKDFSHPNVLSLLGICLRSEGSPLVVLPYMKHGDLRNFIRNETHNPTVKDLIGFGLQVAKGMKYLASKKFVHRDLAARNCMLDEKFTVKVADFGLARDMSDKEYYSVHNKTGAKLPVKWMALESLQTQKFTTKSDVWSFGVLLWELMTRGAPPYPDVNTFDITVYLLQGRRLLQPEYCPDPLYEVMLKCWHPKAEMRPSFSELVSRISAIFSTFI
T8 sequence (P08581 1078-1345 D1228H): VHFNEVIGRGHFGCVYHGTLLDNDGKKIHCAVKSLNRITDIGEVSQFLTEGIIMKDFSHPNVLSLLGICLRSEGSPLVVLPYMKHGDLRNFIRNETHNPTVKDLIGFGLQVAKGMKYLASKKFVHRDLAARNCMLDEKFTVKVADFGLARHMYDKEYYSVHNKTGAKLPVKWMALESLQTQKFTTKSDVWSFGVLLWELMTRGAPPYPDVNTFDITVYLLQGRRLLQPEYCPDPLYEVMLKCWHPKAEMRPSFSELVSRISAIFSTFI
T7 sequence (P08581 1078-1345 Y1230H): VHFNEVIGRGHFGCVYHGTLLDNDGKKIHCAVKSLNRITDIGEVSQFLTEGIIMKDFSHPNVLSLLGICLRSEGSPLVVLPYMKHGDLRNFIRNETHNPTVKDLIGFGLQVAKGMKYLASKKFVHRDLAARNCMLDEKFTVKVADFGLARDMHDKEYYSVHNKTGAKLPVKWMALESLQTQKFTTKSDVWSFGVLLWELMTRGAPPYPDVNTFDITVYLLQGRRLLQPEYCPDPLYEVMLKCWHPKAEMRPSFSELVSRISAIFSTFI
T1 sequence (P08581 1078-1345 F1200I limits assumed): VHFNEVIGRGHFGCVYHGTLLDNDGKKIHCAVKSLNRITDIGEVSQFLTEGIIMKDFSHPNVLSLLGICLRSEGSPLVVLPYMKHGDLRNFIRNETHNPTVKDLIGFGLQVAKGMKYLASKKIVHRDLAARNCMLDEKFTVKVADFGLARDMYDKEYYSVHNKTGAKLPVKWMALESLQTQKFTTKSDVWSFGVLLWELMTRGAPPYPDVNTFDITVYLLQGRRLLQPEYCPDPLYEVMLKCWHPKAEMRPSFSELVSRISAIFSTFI

For the molecule `COc1ccc2nccc(Oc3ccc(NC(=O)c4cn(CCN(C)C)cc(-c5ccc(F)cc5)c4=O)nc3)c2c1` [Example 47], the IC50 (usually the concentration that inhibits the measured activity by half) in experiment [1] was 8.5 nM; in experiment [2] it was 8.8 nM; in experiment [3], 18.9 nM; in experiment [4] it was 414 nM; in experiment [5], 29.7 nM; in experiment [6], 7 nM. Besides, the IC50 came out at 29.4 nM in experiment [7] and 31.1 nM in experiment [8].
For `COc1cc2nccc(Oc3ccc(NC(=O)c4cn(C(C)C)c(C)c(-c5ccc(F)cc5)c4=O)nc3)c2cc1OC` [Example 27, N-(5-((6,7-dimethoxyquinolin-4yl)oxy)pyridin-2-yl)-5-(4-fluorophenyl)-1-isopropyl-6-methyl-4-oxo-1,4-dihydropyridine-3-carboxamide], the IC50 in experiment [1] is 1.6 nM; in experiment [2] it was 1.5 nM; in experiment [3], 1.1 nM; in experiment [4] it was 2.9 nM; in experiment [5], 2 nM; in experiment [6], 2 nM. Further, the IC50 in experiment [7] came out at 2.3 nM; in experiment [8], 1.1 nM.
In the case of `COc1cc2nccc(Oc3ccc(NC(=O)c4cn(CC(=O)N(C)C)cc(-c5ccc(F)c(F)c5)c4=O)nc3)c2cc1OC` [Example 24, 5-(3,4-difluorophenyl)-N-(5-((6,7-dimethoxyquinolin-4-yl)oxy)pyridin-2-yl)-1-(2-(dimethylamino)-2-oxoethyl)-4-oxo-1,4-dihydropyridine-3-carboxamide], the IC50 in experiment [1] was 11.2 nM; in experiment [2], 14.3 nM; in experiment [3] it was 16.5 nM; in experiment [4] it was 92 nM; in experiment [5], 36.7 nM; in experiment [6], 5 nM. In addition, the IC50 in experiment [7] is 22.7 nM; in experiment [8], 15.2 nM.
On to `COc1cc2nccc(Oc3cnc(NC(=O)c4cn(C(C)C)c(C)c(-c5ccc(F)cc5)c4=O)nc3)c2cc1OC` [Example 55, N-(5-((6,7-dimethoxyquinolin-4-yl)oxy)pyrimidin-2-yl)-5-(4-fluorophenyl)-1-isopropyl-6-methyl-4-oxo-1,4-dihydropyridine-3-carboxamide], for which the IC50 in experiment [1] is 3.4 nM; in experiment [2], 2.2 nM; in experiment [3], 2.6 nM; in experiment [4], 5.1 nM; in experiment [5], 3.4 nM; in experiment [6] it was 5 nM. Moreover, the IC50 in experiment [7] came to 2.8 nM; in experiment [8], 2.2 nM.
`CCc1c(-c2ccc(F)cc2)c(=O)c(C(=O)Nc2ccc(Oc3ccnc4cc(OC)c(OC)cc34)cn2)cn1C(C)C` [Example 29, N-(5-((6,7-dimethoxyquinolin-4yl)oxy)pyridin-2-yl)-6-ethyl-5-(4-fluorophenyl)-1-isopropyl-4-oxo-1,4-dihydropyridine-3-carboxamide]: the concentration for half-maximal inhibition (IC50) in experiment [1] is 3.2 nM; in experiment [2], 2.6 nM; in experiment [3], 1.5 nM; in experiment [4] it was 5.1 nM; in experiment [5], 3.1 nM; in experiment [6], 3 nM. Also, the IC50 came out at 4.2 nM in experiment [7] and 2.4 nM in experiment [8].
Turning to `COc1cc2nccc(Oc3ccc(NC(=O)c4cn(CC5CCOCC5)cc(-c5ccc(F)cc5)c4=O)nc3)c2cc1OC` [Example 8, N-(5-((6,7-dimethoxyquinolin-4-yl)oxy)pyridin-2-yl)-5-(4-fluorophenyl)-4-oxo-1-((tetrahydro-2H-pyran-4-yl)methyl)-1,4-dihydropyridine-3-carboxamide], the IC50 in experiment [1] turned out to be 4.9 nM; in experiment [2] it was 7.4 nM; in experiment [3], 4.3 nM; in experiment [4], 29.1 nM; in experiment [5] it was 10.7 nM; in experiment [6] it was 4 nM. In addition, the IC50 in experiment [7] amounted to 8.6 nM; in experiment [8] it was 7.2 nM.
Regarding `COc1cc(-c2cn(C(C)C)cc(C(=O)Nc3ccc(Oc4ccnc5cc(OC)c(OC)cc45)cn3)c2=O)ccc1F` [Example 20, N-(5-((6,7-dimethoxyquinolin-4yl)oxy)pyridin-2-yl)-5-(4-fluoro-3-methoxyphenyl)-1-isopropyl-4-oxo-1,4-dihydropyridine-3-carboxamide], the 50% inhibitory concentration (IC50) in experiment [1] came to 5.1 nM; in experiment [2] it was 7.7 nM; in experiment [3] it was 6.2 nM; in experiment [4], 58.1 nM; in experiment [5] it was 10.4 nM; in experiment [6], 3 nM. The IC50 in experiment [7] and in experiment [8] was 9.9 nM throughout.
Take `COc1cc2nccc(Oc3ccc(NC(=O)c4cn(C5CCOCC5)cc(-c5ccc(F)cc5)c4=O)nc3)c2cc1OC` [Example 12, N-(5((6,7-dimethoxyquinolin-4-yl)oxy)pyridin-2-yl)-5-(4-fluorophenyl)-4-oxo-1-(tetrahydro-2H-pyran-4-yl)-1,4-dihydropyridine-3-carboxamide]: the IC50 in experiment [1] is 7 nM; in experiment [2] it was 5.5 nM; in experiment [3], 4.6 nM; in experiment [4], 33 nM; in experiment [5], 9.7 nM; in experiment [6] it was 4 nM. In addition, the IC50 was determined as 5.4 nM in experiment [7] and 8.4 nM in experiment [8].
As for `COc1cc2nccc(Oc3ccc(NC(=O)c4cn(CCC(C)C)cc(-c5ccc(F)c(F)c5)c4=O)nc3)c2cc1OC` [Example 35, 5-(3,4-difluorophenyl)-N-(5-((6,7-dimethoxyquinolin-4yl)oxy)pyridin-2-yl)-1-isopentyl-4-oxo-1,4-dihydropyridine-3-carboxamide], the half-inhibitory concentration (IC50) in experiment [1] worked out at 11.5 nM; in experiment [2] it was 10.5 nM; in experiment [3] it was 8.5 nM; in experiment [4] it was 34.3 nM; in experiment [5] it was 16.2 nM; in experiment [6], 15 nM. Besides, the results for the half-inhibitory concentration (IC50) in experiment [7] and in experiment [8] were 18.3 nM and 8.3 nM, respectively.
In the case of `COc1cc2nccc(Oc3ccc(NC(=O)c4cn(C(C)C)cc(-c5ccc(F)cc5)c4=O)nc3)c2cc1OC` [Example 1], the IC50 in experiment [1] amounted to 2.5 nM; in experiment [2], 1.5 nM; in experiment [3] it was 1.3 nM; in experiment [4], 7.1 nM; in experiment [5], 3.4 nM; in experiment [6], 3 nM. Moreover, the IC50 in experiment [7] was 2.9 nM; in experiment [8] it was 1.8 nM.
As to `COc1cc2nccc(Oc3ccc(NC(=O)c4cn(C)c(C(C)C)c(-c5ccc(F)cc5)c4=O)nc3)c2cc1OC` [Example 45, N-(5-((6,7-dimethoxyquinolin-4-yl)oxy)pyridin-2-yl)-5-(4-fluorophenyl)-6-isopropyl-1-methyl-4-oxo-1,4-dihydropyridine-3-carboxamide], the concentration for half-maximal inhibition (IC50) in experiment [1] came to 8.3 nM; in experiment [2] it was 4.4 nM; in experiment [3] it was 6.2 nM; in experiment [4], 41.4 nM; in experiment [5], 13.4 nM; in experiment [6] it was 27 nM. The values for the IC50 in experiment [7] and in experiment [8] were 9.9 nM and 11.1 nM, respectively.
